Test results as given in patent publication US5948780A, “Method for treating and preventing heart failure and ventricular dilatation” (priority 1997, dated 1999).

Tests used:
MMPs = experiment: MMP inhibition at trough plasma level in pigs; settings: 20 mg/kg/day oral
[1] = tested on: pacing-induced heart failure model; experiment: pacing-induced heart failure in pigs, first study (echocardiography); type: in vivo, pig
Description: A study was performed in four pigs in which atrial pacemakers were implanted. Heart failure was induced by chronic rapid pacing (i.e., increasing heart rate to 240 beats per minute). Echocardiographic assessment of cardiac function, chamber dimensions, and structure was performed prior to the initiation of pacing, and following 1 and 3 weeks of rapid pacing. Previous studies have shown that 1 week of rapid atrial pacing represents an early timepoint in the development of heart failure in which cardiac dilation is evident, but there is no significant effect on left ventricular (LV) systolic function. Two pigs were dosed with the MMP-inhibitor 2-(4'-bromobiphenyl-4-sulfonylamino)-3-methylbutyric acid (Compound A) (20 mg/kg/day) which was given once a day orally. This dosage was selected based upon pharmacokinetic data in which this dosage regimen would provide minimal steady state plasma levels of 10 μM Compound A. One pig dosed with Compound A was sacrificed at the end of 1 week of pacing, and the second pig was paced for a full 3 weeks. At the end of 3 weeks, pigs were euthanized and the heart removed. Cardiac myocytes were isolated from a portion of the left ventricle to measure changes in cell length.
(§1) MMP-Inhibitor efficacy in treating heart failure was defined as stopping cardiac dilation, preserving cardiac function, and reducing cardiac myocyte lengthening. Cardiac dilation was assessed by measuring changes in the end-diastolic dimension between the left ventricular free wall and left ventricular septum. Cardiac function was also measured using m-mode echocardiography by calculating the percent fraction shortening, or in other words, how well the left ventricle of the heart pumped blood into the circulation. Cellular remodelling was measured by isolating cardiac myocytes using a standard collagenase digestion procedure and measuring cell length using digital photomicroscopy. To confirm plasma drug levels of the MMP-inhibitor, plasma was collected prior to dosing on each day of the pacing protocol.

cardiac myocytes = experiment: cardiac myocyte length after pacing, first study; type: in vivo, pig
Description: A study was performed in four pigs in which atrial pacemakers were implanted. Heart failure was induced by chronic rapid pacing (i.e., increasing heart rate to 240 beats per minute). Echocardiographic assessment of cardiac function, chamber dimensions, and structure was performed prior to the initiation of pacing, and following 1 and 3 weeks of rapid pacing. Previous studies have shown that 1 week of rapid atrial pacing represents an early timepoint in the development of heart failure in which cardiac dilation is evident, but there is no significant effect on left ventricular (LV) systolic function. […]
as §1, with “To confirm plasma drug levels of the MMP-inhibitor, plasma was collected prior to dosing on each day of the pacing protocol.” left out

gelatinases = experiment: plasma MMP inhibitory activity (thiopeptolide hydrolysis), gelatinases; type: biochemical; settings: plasma after 10 mg/kg oral administration
Description: (§2) The MMP inhibitor chosen for these studies was Compound A as above. A single oral dose of 10 mg/kg of Compound A was administered in one pig, and a second pig was simultaneously administered a single 10 mg/kg dose of the MMP inhibitor intravenously. Plasma samples were serially collected from the chronically placed arterial access ports. Plasma levels of the MMP inhibitor were determined by the degree of hydrolysis of the MMP substrate thiopeptolide Ac-Pro-Leu-Gly-thioester-Leu-Leu-Gly=OEt. […] A pharmacokinetic profile was constructed using these initial data, and it was predicted that an oral delivery of 20 mg/kg/day of Compound A would provide significant MMP plasma inhibitory activity at trough levels. Accordingly, the 3 pigs underwent 20 mg/kg QD-AM of treatment with Compound A for 5 days. In order to confirm adequate MMP inhibitory activity, plasma was collected prior to the AM dose with each day of treatment. […] Thus, a practical dosing regiment of Compound A was established which provided stable plasma MMP inhibitory activity in the animal model to be used in the present study.

MMP = MMP inhibitory activity of plasma from treated pigs, artificial MMP substrate; type: biochemical
Description: as §2

[2] = 20 mg/kg/day oral, paced 7 days
[3] = 20 mg/kg/day oral, paced 21 days
[4] = Paced + Compound A group, baseline

`CC(C)C(NS(=O)(=O)c1ccc(-c2ccc(Br)cc2)cc1)C(=O)O` (stereo not drawn) [Compound A, 2-(4'-bromobiphenyl-4-sulfonylamino)-3-methylbutyric acid] was tested, and the “inhibition of MMPs at trough level” value (MMPs) was “a level great enough to inhibit all MMPs tested”, the “End-Diastolic Dimension” value [1, 2] was 3.6 ± 0.2 cm and the “Fractional Shortening” value [1, 2] was 33 ± 3%. For the same molecule, the “Heart Rate” value [1, 2] was 120 ± 3 BPM, the “LV Stress” value [1, 2] was 50 ± 4 g/cm2 and the “End-Diastolic Dimension” value [1, 3] was 4.3 cm. For the same molecule, the “Fractional Shortening” value [1, 3] was 22%, the “decrease in cardiac function (fractional shortening)” value ([1]; 3 weeks of pacing) was 39% and the “increase in cardiac dilation (left ventricular end-diastolic dimension)” value ([1]; 3 weeks of pacing) was 26%. For the same molecule, the “End-Diastolic Dimension” value [1, 4] was 3.4 ± 0.2 cm, the “Fractional Shortening” value [1, 4] was 36 ± 3% and the “Heart Rate” value [1, 4] was 105 ± 4 BPM. The “LV Stress” value [1, 4] was 46 ± 3 g/cm2, the “left ventricular end-diastolic volume versus control values” ([1]; first week of pacing) was “remained unchanged from control values” and the “left ventricular wall stress versus control values” ([1]; first week of pacing) was “remained unchanged from control values”. The “fractional shortening, change” value ([1]; following 1 week of pacing) was “unchanged”, the “Cardiac Myocyte Length” value (cardiac myocytes; [3]) was 170 μms and the “increase in cardiac myocyte cell length” value (cardiac myocytes; 3 weeks of pacing) was 19%. For the same molecule, the “reduction in activity against the gelatinases” value (gelatinases) was ~50%, the “plasma MMP inhibitory activity” value (MMP; pig, 20 mg/kg QD for 5 days, pre-dose plasma) was “significant plasma MMP inhibitory activity was observed” and the “reduction of in vitro MMP activity by plasma” value (MMP; plasma after 3 days of treatment, 20 mg/kg QD, artificial MMP substrate) was “over 100%”.
